Results from US20230374034A1, “NOVEL BICYCLIC COMPOUNDS” (PRISM BIOLAB CO., LTD., priority 2020, published 2023).
Like-named read-outs stand apart in the source and are kept apart here.

Tested on: NICD (Notch intracellular domain) CSL-bla reporter in HeLa cells
Assay: Notch assay (CellSensor T-REx NICD CSL-bla HeLa beta-lactamase reporter; Method 1 / Method 2)
Assay type: cell-based
Details: Homo sapiens, 10 μM compound, read-out: inhibiton (%) at 10 μM
Source text: We used the CellSensor T-REx™ NICD CSL-bla HeLa cell line, which was engineered by lentiviral transduction of HeLa cells with a Notch response element driving beta-lactamase reporter gene expression (CSL-bla) along with DOX (doxycycline)-inducible NICD (Notch intracellular domain) constructs. Addition of DOX to these cells allows for regulated NICD transcription factor expression and subsequent beta-lactamase expression.
Specifically, the following protocol was used.
NOTCH ASSAY PROTOCOL (Method 2)
• 1. Add 40 nL/well of working concentration of 1000× compound to 384-well assay plate with Echo. • 2. Plate Cells: 35 μl/well of HeLa/T-REx™ NICD CSL-bla cells at 10^3 cells/well complete medium into 384-well plate. • 3. Add 5 μl 8× Doxycycline in Assay Medium to the treated wells, and 5 μl Assay Medium to the Untreated and cell free control wells. • 4. Incubate the assay plate in a humidified 37° C./5% CO2 incubator for 16-20 hours. • 5. Preparation of 6× LiveBLAzer™-FRET B/G Substrate (CCF4-AM) Mixture according to the manual and cell loading should be done in the absence of direct strong lighting. • 6. Remove assay plate from the humidified 37° C./5% CO2 incubator. Add 8 μl of 6× Substrate Mixture from Step 5 to each well. Cover the plate to protect it from light and evaporation. Incubate at room temperature for 4 hours. • 7. Reading an Assay Plate using the following filter selections:
• 8. Data analysis: Use the assay plate layout to identify the location of the Cell-free wells. These control wells are used for background subtraction. Determine the average emission from the Cell-free wells at both 460 nm (Average Blue Background) and 530 nm(Average Green Background). Subtract the Average Blue Background (data collected at 460 nm) from all of the blue emission data. Subtract the Average Green background (data collected at 530 nm) from all of the green emission data. Calculate the Blue/Green Emission Ratio for each well, by dividing the background-subtracted blue emission values by the background-subtracted green emission values.
Instead of Step 1 to Step 3, the following Step a to Step d can also be performed. The subsequent steps are the same as Method 2, after Step 4 (Method 1). • a. Plate Cells: 32 μL/well of HeLa/T-REx™ NICD CSL-bla cells at 10^3 cells/well complete medium into 384-well plate. • b. Prepare 10× compounds in assay medium. • c. Add 4 μL compounds or 1% DMSO in assay medium to the cells. • d. Add 4 μL 10×Doxycycline in Assay Medium to the treated wells, and 4 μL Assay Medium to the Untreated and cell free control wells.
The results are shown in Table 13 (Table 13-1 to Table 13-2).

[1] = Method 2 (40 nL of 1000× compound added to plate with Echo)
[2] = Method 1 (10× compound prepared in assay medium, added to plated cells)

Structure (SMILES): NC(=O)CC[C@H]1C(=O)N([C@@H](Cc2ccccc2)C(=O)NCCCc2ccccc2)CC2N(C(=O)OCCc3ccc(O)cc3)O[C@H](Cc3ccccc3)C(=O)N21 (stereo partly drawn) [Compound I-126, 4-hydroxyphenethyl (3R,6S)-6-(3-amino-3-oxopropyl)-3-benzyl-4,7-dioxo-8-((S)-1-oxo-3-phenyl-1-((3-phenylpropyl)amino)propan-2-yl)hexahydropyrazino [2,1-c][1,2,4]oxadiazine-1(6H)-carboxylate]
- inhibition at 10 µM [1]: 67.2%

Structure (SMILES): CCCCCOC(=O)N1O[C@H](Cc2ccc(O)cc2)C(=O)N2C1CN([C@@H](Cc1ccc(O)cc1)C(=O)NCCc1ccccc1)C(=O)[C@@H]2Cc1ccc(O)cc1 (stereo partly drawn) [Compound I-118, pentyl (3R,6S)-3,6-bis(4-hydroxybenzyl)-8-((S)-3-(4-hydroxyphenyl)-1-oxo-1-(phenethylamino)propan-2-yl)-4,7-dioxohexahydropyrazino[2,1-c][1,2,4]oxadiazine-1(6H)-carboxylate]
- inhibition at 10 µM [1]: 63.3%

Structure (SMILES): CC(C)CCNC(=O)[C@H](Cc1ccc(O)cc1)N1CC2N(C(=O)OCCC(C)C)O[C@H](CC(C)C)C(=O)N2[C@@H](Cc2ccc(O)cc2)C1=O (stereo partly drawn) [Compound I-94, isopentyl (3R,6S)-6-(4-hydroxybenzyl)-8-((S)-3-(4-hydroxyphenyl)-1-(isopentylamino)-1-oxopropan-2-yl)-3-isobutyl-4,7-dioxohexahydropyrazino[2,1-c][1,2,4]oxadiazine-1(6H)-carboxylate]
- inhibition at 10 µM [1]: 57.8%

Structure (SMILES): NC(=O)C[C@H]1C(=O)N(CCc2ccccc2)CC2N(C(=O)OCC3CCCCC3)O[C@H](Cc3ccc(O)cc3)C(=O)N21 (stereo partly drawn) [Compound I-39, (3R,6S)-cyclohexylmethyl 6-(2-amino-2-oxoethyl)-3-(4-hydroxybenzyl)-4,7-dioxo-8-phenethylhexahydropyrazino [2,1-c][1,2,4]oxadiazine-1(6H)-carboxylate]
- inhibition at 10 µM [1]: 52.1%

Structure (SMILES): CC(C)C[C@H]1ON(CCCC2CCN(S(C)(=O)=O)CC2)C2CN(C3CCN(C)CC3)C(=O)[C@H](CC(C)C)N2C1=O (stereo partly drawn) [Compound I-151, (3R,6S)-3,6-diisobutyl-8-(1-methylpiperidin-4-yl)-1-(3-(1-(methylsulfonyl)piperidin-4-yl)propyl) tetrahydropyrazino [2,1-c][1,2,4]oxadiazine-4,7(3H,6H)-dione]
- inhibition at 10 µM [1]: 88%

Structure (SMILES): CC(C)CCNC(=O)[C@H](CC(C)C)N1CC2N(C(=O)OCCc3ccc(O)cc3)O[C@H](CC(C)C)C(=O)N2[C@@H](Cc2ccc(O)cc2)C1=O (stereo partly drawn) [Compound I-91, 4-hydroxyphenethyl (3R,6S)-6-(4-hydroxybenzyl)-3-isobutyl-8-((S)-1-(isopentylamino)-4-methyl-1-oxopentan-2-yl)-4,7-dioxohexahydropyrazino[2,1-c][1,2,4]oxadiazine-1(6H)-carboxylate]
- inhibition at 10 µM [1]: 51%

Structure (SMILES): CCCCCCOC(=O)N1O[C@H](CCCC)C(=O)N2C1CN(CCC(C)C)C(=O)[C@@H]2Cc1ccc(O)cc1 (stereo partly drawn) [Compound I-2, (3R,6S)-hexyl 3-butyl-6-(4-hydroxybenzyl)-8-isopentyl-4,7-dioxohexahydropyrazino[2,1-c][1,2,4]oxadiazine-1(6H)-carboxylate]
- inhibition at 10 µM [2]: 53.5%

Structure (SMILES): CC(C)C[C@@H](C(=O)NCCc1ccccc1)N1CC2N(C(=O)OCCc3ccccc3)O[C@H](Cc3ccc(O)cc3)C(=O)N2[C@@H](Cc2ccc(O)cc2)C1=O (stereo partly drawn) [Compound I-115, phenethyl (3R,6S)-3,6-bis(4-hydroxybenzyl)-8-((S)-4-methyl-1-oxo-1-(phenethylamino)pentan-2-yl)-4,7-dioxohexahydropyrazino[2,1-c][1,2,4]oxadiazine-1(6H)-carboxylate]
- inhibition at 10 µM [1]: 51.1%

Structure (SMILES): Cc1ccc(S(=O)(=O)N2CCC(CCCN3O[C@H](CC(C)C)C(=O)N4C3CN(C3CCN(C)CC3)C(=O)[C@@H]4CC(C)C)CC2)cc1 (stereo partly drawn) [Compound I-149, (3R,6S)-3,6-diisobutyl-8-(1-methylpiperidin-4-yl)-1-(3-(1-tosylpiperidin-4-yl)propyl)tetrahydropyrazino [2,1-c][1,2,4]oxadiazine-4,7(3H,6H)-dione]
- inhibition at 10 µM [1]: 114%

Structure (SMILES): CCCCCCNC(=O)N1O[C@H](Cc2ccccc2)C(=O)N2C1CN(CCC(c1ccccc1)c1ccccc1)C(=O)[C@@H]2CCC(N)=O (stereo partly drawn) [Compound I-57, (3R,6S)-6-(3-amino-3-oxopropyl)-3-benzyl-8-(3,3-diphenylpropyl)-N-hexyl-4,7-dioxohexahydropyrazino[2,1-c][1,2,4]oxadiazine-1(6H)-carboxamide]
- inhibition at 10 µM [1]: 63.4%

Structure (SMILES): O=C1[C@H](CO)N2C(=O)[C@@H](Cc3ccccc3)ON(C(=O)OCC3CCCCC3)C2CN1CCc1ccc(O)cc1 (stereo partly drawn) [Compound I-32, (3R,6S)-cyclohexylmethyl 3-benzyl-6-(hydroxymethyl)-8-(4-hydroxyphenethyl)-4,7-dioxohexahydropyrazino[2,1-c][1,2,4]oxadiazine-1(6H)-carboxylate]
- inhibition at 10 µM [1]: 59.8%

Structure (SMILES): CC(C)C[C@H]1ON(C(=O)OCc2ccccc2)C2CN(C3CCN(C)CC3)C(=O)[C@H](CC3CCCCC3)N2C1=O (stereo partly drawn) [Compound I-140, benzyl (3R,6S)-6-(cyclohexylmethyl)-3-isobutyl-8-(1-methylpiperidin-4-yl)-4,7-dioxohexahydropyrazino [2,1-c][1,2,4]oxadiazine-1(6H)-carboxylate]
- inhibition at 10 µM [1]: 60.9%

Structure (SMILES): CC(C)CCN1CC2N(C(=O)OCc3cccc4ccccc34)O[C@H](Cc3ccccc3)C(=O)N2[C@@H](Cc2ccc(O)cc2)C1=O (stereo partly drawn) [Compound I-16, (3R,6S)-naphthalen-1-ylmethyl 3-benzyl-6-(4-hydroxybenzyl)-8-isopentyl-4,7-dioxohexahydropyrazino[2,1-c][1,2,4]oxadiazine-1(6H)-carboxylate]
- inhibition at 10 µM [2]: 79.8%

Structure (SMILES): CC(C)C[C@H]1ON(C(=O)OCc2cccc3ccccc23)C2CN(CCC(N)=O)C(=O)[C@H](CC3CCCCC3)N2C1=O (stereo partly drawn) [Compound I-13, (3R,6S)-naphthalen-1-ylmethyl 8-(3-amino-3-oxopropyl)-6-(cyclohexylmethyl)-3-isobutyl-4,7-dioxohexahydropyrazino[2,1-c][1,2,4]oxadiazine-1(6H)-carboxylate]
- inhibition at 10 µM [2]: 55.5%

Structure (SMILES): CC(C)CCNC(=O)[C@H](Cc1ccc(O)cc1)N1CC2N(C(=O)OCCC(C)C)O[C@H](Cc3ccccc3)C(=O)N2[C@@H](Cc2ccc(O)cc2)C1=O (stereo partly drawn) [Compound I-107, isopentyl (3R,6S)-3-benzyl-6-(4-hydroxybenzyl)-8-((S)-3-(4-hydroxyphenyl)-1-(isopentylamino)-1-oxopropan-2-yl)-4,7-dioxohexahydropyrazino[2,1-c][1,2,4]oxadiazine-1(6H)-carboxylate]
- inhibition at 10 µM [1]: 61.1%

Structure (SMILES): CC(C)CCOC(=O)N1O[C@H](Cc2ccc(O)cc2)C(=O)N2C1CN([C@@H](Cc1ccc(O)cc1)C(=O)NCCc1ccccc1)C(=O)[C@@H]2Cc1ccc(O)cc1 (stereo partly drawn) [Compound I-117, isopentyl (3R,6S)-3,6-bis(4-hydroxybenzyl)-8-((S)-3-(4-hydroxyphenyl)-1-oxo-1-(phenethylamino)propan-2-yl)-4,7-dioxohexahydropyrazino[2,1-c][1,2,4]oxadiazine-1(6H)-carboxylate]
- inhibition at 10 µM [1]: 59.7%

Structure (SMILES): O=C1[C@H](CO)N2C(=O)[C@@H](Cc3ccc(O)cc3)ON(C(=O)OCc3ccccc3)C2CN1CCc1cccc2ccccc12 (stereo partly drawn) [Compound I-48, (3R,6S)-benzyl 3-(4-hydroxybenzyl)-6-(hydroxymethyl)-8-(2-(naphthalen-1-yl)ethyl)-4,7-dioxohexahydropyrazino[2,1-c][1,2,4]oxadiazine-1(6H)-carboxylate]
- inhibition at 10 µM [1]: 57.3%

Structure (SMILES): CC(C)[C@H]1C(=O)N(CC2CCCCC2)CC2N(C(=O)OCc3cccc4ccccc34)O[C@H](CC(N)=O)C(=O)N21 (stereo partly drawn) [Compound I-18, (3R,6S)-naphthalen-1-ylmethyl 3-(2-amino-2-oxoethyl)-8-(cyclohexylmethyl)-6-isopropyl-4,7-dioxohexahydropyrazino[2,1-c][1,2,4]oxadiazine-1(6H)-carboxylate]
- inhibition at 10 µM [2]: 54%

Structure (SMILES): CC(C)C[C@H]1ON(CCCC2CCN(C(=O)c3ccc(C(=O)c4ccccc4)cc3)CC2)C2CN(C3CCN(C)CC3)C(=O)[C@H](CC(C)C)N2C1=O (stereo partly drawn) [Compound I-148, (3R,6S)-1-(3-(1-(4-benzoylbenzoyl)piperidin-4-yl)propyl)-3,6-diisobutyl-8-(1-methylpiperidin-4-yl)tetrahydropyrazino[2,1-c][1,2,4]oxadiazine-4,7(3H,6H)-dione]
- inhibition at 10 µM [1]: 76.6%
